Measured values reported in patent publication US10253006B2, “Assay for the detection of the phenylpiperazine family” (RANDOX LABORATORIES LIMITED, priority 2012, dated 2019).
Read-outs that look alike come from different tables or passages of the source.

Legend:
Assay type in all cases: binding, sheep
[1] = system: antibody 1 raised against Immunogen IV; assay: Biochip competitive immunoassay, antibody 1
Description: (§1) A semi-automated Evidence Investigator analyser (Randox Laboratories Ltd., Crumlin, UK) was used as the platform for a biochip assay for the detection of phenylpiperazines.
(§2) Immunogens were administered to 16-month old Suffolk sheep on a monthly basis to provide target specific polyclonal antisera. The immunisation mixture was prepared by adding 2 mg of immunogen prepared in PBS at a ratio of 50% Immunogen/PBS with 50% Freund's Complete adjuvant (Sigma, Product Number—F5881) and emulsifying the mixture to prepare the final product for immunisation. On day 0, 1 ml of the mixture described above was administered intramuscularly to adult sheep. Subsequent boosts (a total of 20 boosts) were administered intramuscularly to each sheep every 30 days. Freund's complete adjuvant (Sigma, Product Number—F5881) was used for primary immunizations and Freund's incomplete adjuvant (Sigma product Number—F5506) was used for all subsequent injections. Routine bleeds were taken between boosts to monitor the antibody titre and sensitivity, using hapten B conjugated to Horseradish peroxidase in a competitive ELISA, testing cross reactivity to 1-(3-Chlorophenyl)piperazine. In the case of the combination immunoassay, immunogens II and IV were administered to separate sheep and the resulting antisera were combined in a 1:1 ratio to form the antibody blend (1 ml of antisera from the sheep administered with Immunogen II was combined with 1 ml of antisera from the sheep administered with Immunogen IV). IgG was extracted from antisera and purified as described above, and the purified antibodies were immobilised on a biochip (9 mm×9 mm) (Randox Laboratories Ltd). The assay was based on competition for binding sites of a polyclonal antibody between Hapten B-HRP conjugate (Example 9) and phenylpiperazines and potential cross-reactants. The antibodies were immobilised and stabilised onto the biochip surface as previously described (Fitzgerald et al., 2005). Assay dilutent (155 μL), calibrator/phenylpiperazine or potential cross-reactant (25 μL) followed by Hapten-B conjugate (120 μL) were added to the appropriate biochip. The biochips were then incubated for 30 minutes at 30° C. on a thermoshaker set at 370 rpm. The biochips were then subjected to 2 quick wash cycles using the wash buffer provided, followed by 4×2 minute wash cycles. 250 μL of signal (1:1 luminol+peroxide, v/v) was then added to each biochip, and after 2 minutes the biochip carrier was imaged in the Evidence Investigator analyser.
(§3) Calibration curves were generated using the Biochip-based immunoassay. IC50 values were calculated from the graphs by taking 50% of the signal from the zero calibrator and reading the corresponding value on the x-axis, equivalent to the concentration of unlabelled ligand which reduces specific binding of labelled ligand by 50%. Specificity (measured as percentage cross-reactivity−[IC50 (analyte)/IC50 (cross-reactant)]×100) was also tested against a range of piperazine derivatives and other compounds sharing structural features (see table 1).

[2] = system: Combination of antibodies 1 & 2 (antisera combined in a 1:1 ratio)
Description: as §1, §2, §3

[3] = system: antibody 2 raised against Immunogen II
Description: as §1, §2, §3

[4] = Antibody 1, Hapten B-HRP conjugate
[5] = Antibody 1, standardized to 1-(3-chlorophenyl)piperazine monohydrochloride, Hapten B-HRP conjugate
[6] = Combination of antibodies 1 & 2, Hapten B-HRP conjugate
[7] = Combination of antibodies 1 & 2, standardized to 1-(3-chlorophenyl)piperazine monohydrochloride, Hapten B-HRP conjugate
[8] = Antibody 2, Hapten B-HRP conjugate
[9] = Antibody 2, standardized to 1-(3-chlorophenyl)piperazine monohydrochloride, Hapten B-HRP conjugate

Row | Compound | IC50 [1, 4] | Cross-reactivity (%) [1, 5] | IC50 [2, 6] | Cross-reactivity (%) [2, 7] | IC50 [3, 8] | Cross-reactivity (%) [3, 9] | Cross-reactivity (%) [1] | IC50 [1] | Cross-reactivity (%) [2] | IC50 [2] | Cross-reactivity (%) [3] | IC50 [3]
1 | COc1ccccc1N1CCNCC1 [1-(2-Methoxyphenyl)piperazine] | 335.160 ng/mL | <1% | 15.553 ng/mL | 17% | 8.770 ng/mL | 34% | – | – | – | – | – | –
2 | Clc1cccc(N2CCNCC2)c1 [1-(3-Chlorophenyl)piperazine (mCPP), 1-(3-chlorophenyl)piperazine] | 0.907 ng/mL | 100% | 2.075 ng/mL | 100% | 2.554 ng/mL | 100% | – | – | – | – | – | –
3 | Cc1cccc(N2CCNCC2)c1 [1-(3-Methylphenyl)piperazine (mMPP), 1-(3-Methylphenyl)piperazine] | 0.840 ng/mL | 129% | 1.418 ng/mL | 191% | 1.697 ng/mL | 230% | – | – | – | – | – | –
4 | FC(F)(F)c1cccc(N2CCNCC2)c1 [1-(3-Trifluoromethylphenyl)piperazine] | 7.620 ng/mL | 13% | 5.958 ng/mL | 44% | 4.831 ng/mL | 61% | – | – | – | – | – | –
5 | Oc1cccc(N2CCNCC2)c1 [1-(3-hydroxyphenyl)piperazine] | – | – | – | – | – | – | 31% | 3.469 ng/mL | 95% | 2.848 ng/mL | 156% | 2.504 ng/mL
6 | Fc1ccc(N2CCNCC2)cc1 [1-(4-Fluorophenyl)piperazine] | 1.085 ng/mL | 54% | 5.113 ng/mL | 51% | 7.646 ng/mL | 38% | – | – | – | – | – | –
7 | COc1ccc(N2CCNCC2)cc1 [1-(4-Methoxyphenyl)piperazine (pMeOPP), 1-(4-methoxyphenyl)piperazine] | 0.868 ng/mL | 68% | 10.226 ng/mL | 26% | 19.771 ng/mL | 20% | – | – | – | – | – | –
8 | Oc1ccc(N2CCNCC2)cc1 [1-(4-hydroxyphenyl)piperazine] | 1.029 ng/mL | 57% | 15.032 ng/mL | 18% | 28.195 ng/mL | 10% | – | – | – | – | – | –
9 | CN1CCNC(c2ccccc2)C1 (centres unmarked) [1-Methyl-3-phenylpiperazine] | – | <1% | – | <1% | – | <1% | – | – | – | – | – | –
10 | c1ccc(CN2CCNCC2)cc1 [1-benzylpiperazine (BZP), 1-benzylpiperazine] | 232.706 ng/mL | <1% | – | <1% | – | <1% | – | – | – | – | – | –
11 | c1ccc(N2CCNCC2)cc1 [1-phenylpiperazine] | 1.017 ng/mL | 106% | 2.163 ng/mL | 125% | 2.795 ng/mL | 140% | – | – | – | – | – | –
12 | Nc1cccc(C(F)(F)F)c1O [3-Amino-2-hydroxybenzotrifluoride] | – | <1% | – | <1% | – | <1% | – | – | – | – | – | –
13 | OC1(c2ccc(Cl)cc2)CCNCC1 [4-(4-Chlorophenyl)-4-Hydroxypiperidine] | 218.980 ng/mL | <1% | – | <1% | – | <1% | – | – | – | – | – | –
14 | CCCCCn1cc(C(=O)c2cccc3ccccc23)c2ccccc21 [JWH-018] | – | <1% | – | <1% | – | <1% | – | – | – | – | – | –
15 | CCCCCn1cc(C(=O)Cc2ccccc2OC)c2ccccc21 [JWH-250] | – | <1% | – | <1% | – | <1% | – | – | – | – | – | –
16 | CCC(C(=O)c1ccc2c(c1)OCO2)N1CCCC1 (centres unmarked) [MDPBP] | – | <1% | – | <1% | – | <1% | – | – | – | – | – | –
17 | CNC(C)C(=O)c1ccc(C)cc1 (centres unmarked) [Mephedrone] | – | <1% | – | <1% | – | <1% | – | – | – | – | – | –
18 | COc1cc(CCN)cc(OC)c1OC [Mescaline] | – | <1% | – | <1% | – | <1% | – | – | – | – | – | –
19 | C1CNCCN1 [Piperazine] | – | – | – | – | – | – | <1% | – | <1% | – | <1% | –
20 | COC(=O)[C@@H]1C[C@H](OC(C)=O)C(=O)[C@H]2[C@@]1(C)CC[C@H]1C(=O)O[C@H](c3ccoc3)C[C@]21C [Salvinorin A] | – | <1% | – | <1% | – | <1% | – | – | – | – | – | –
21 | O=c1n(CCCN2CCN(c3cccc(Cl)c3)CC2)nc2ccccn12 [Trazadone] | – | <1% | – | – | – | <1% | – | – | <1% | – | – | –
22 | (+)-Pseudoephedrine | – | <1% | – | <1% | – | <1% | – | – | – | – | – | –
